The values below come from US7262223B2, “Amidine derivatives for treating amyloidosis” (Neurochem (International) Limited, priority 2004, dated 2007).

For the test, the target named is T1, solubilized Aβ40 (Homo sapiens, UniProt P05067).
T1 construct: 20 μM of solubilized Aβ40
T1 sequence (P05067 672-711 limits assumed): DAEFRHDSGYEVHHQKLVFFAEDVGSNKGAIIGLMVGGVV
The test is described as follows: Mass spectroscopy (MS) assay of binding to soluble Aβ40. More on the design: key: “+” = active; “−” = inactive. The settings on record: 200 μM test compound, 20 μM solubilized Aβ40, 20% ethanol, pH 7.4, electrospray ionization MS. As for the experimental part:
Test compounds were purchased from commercial sources or synthesized and screened by mass spectroscopy (“MS”) assay, which gives data on the ability of compounds to bind to an amyloid protein. Samples were prepared as aqueous solutions containing 20% ethanol, 200 μM of a test compound and 20 μM of solubilized Aβ40. The pH value of each sample was adjusted to 7.4 (±0.2) by addition of 0.1% aqueous sodium hydroxide. The solutions were then analyzed by electrospray ionization mass spectroscopy using a Waters ZQ 4000 mass spectrometer. Samples were introduced by direct infusion at a flow-rate of 25 μL/min within 2 hr. after sample preparation. The source temperature was kept at 70° C. and the cone voltage was 20 V for all the analysis. Data were processed using Masslynx 3.5 software. The MS assay gives data on the ability of compounds to bind to Aβ, whereas the ThT, EM and CD assays give data on inhibition of fibrillogenesis.
Turning to `N=C(NCCCCCCCCCNC(=N)c1ccc(Br)cc1)c1ccc(Br)cc1` [Compound 151], the “MS Assay” value is recorded as “+”.

With `N=C(NCCCCCNC(=N)c1ccc(Br)cc1)c1ccc(Br)cc1` [Compound 150], the “MS Assay” value was “+”.

With `COc1ccc(C(=N)NCCN2CCN=C2c2ccc(OC)cc2)cc1` [Compound 153], the “MS Assay” value is “+”.

For the compound `N=C(NCCCCCCCNC(=O)c1ccc(Br)cc1)c1ccc(Br)cc1` [Compound 146], the “MS Assay” value was “+”.

In the case of `N=C(N)c1ccc(C(=O)NCCN(CCNC(=O)c2ccc(C(=N)N)cc2)C(=O)c2ccc(C(=N)N)cc2)cc1` [Compound 155], the “MS Assay” value is on record as “−”.

Regarding `N=C(N)c1ccc(S(=O)(=O)NCCCCCCCCCNS(=O)(=O)c2ccc(C(=N)N)cc2)cc1` [Compound 158], the “MS Assay” value was “−”.

Consider `COc1ccc(C(=N)NCCCCCNC(=N)c2ccc(OC)cc2)cc1` [Compound 154], for which the “MS Assay” value is listed as “+”.

As to `CCOC(=O)c1ccc(C(=O)NCCCCCCCCCNC(=O)c2ccc(C(=N)N)cc2)cc1` [Compound 149], the “MS Assay” value is listed as “+”.

Consider `N=C(NCCCCCCCN)c1ccc(Br)cc1` [Compound 145], for which the “MS Assay” value is “+”.

In the case of `Nc1ccc(OCCCCCOc2ccc(NC3=NCCN3)cc2)cc1` [Compound 156], the “MS Assay” value is on record as “−”.

For `COc1ccc(C(=N)NCCCCCCCCCNC(=N)c2ccc(OC)cc2)cc1` [Compound 152], the “MS Assay” value is “−”.

Take `CCOC(=O)c1ccc(C(=O)NCCCCCCCNC(=O)c2ccc(C(=N)N)cc2)cc1` [Compound 148]: the “MS Assay” value is listed as “+”.

As for `N/C(=N\O)c1ccc(OCCCCCCCCCNO)cc1` [Compound 147], the “MS Assay” value is reported as “−”.
